Data: US7250441B2, “Carbazole and cyclopentaindole derivatives to treat infection with Hepatitis C virus” (priority 2004, dated 2007)

Target: T1, HCV RdRp NS5B d21BK (NS5B from the BK strain, genotype 1b) (Hepatitis C virus genotype 1b, UniProt P26663)
T1 construct: NS5B from the BK strain (genotype 1b) is expressed in E coli as a protein in which the 21 C-terminal amino acids are replaced; made in house; host or cells: E. coli
Test: Hepatitis C polymerase inhibition assay, radioactive nucleotide incorporation with filter capture
Format: biochemical
Description: The ability of the compounds of formula (I) to inhibit Hepatitis C Polymerase was established by the following experimental procedure.
NS5B from the BK strain (genotype 1b) is expressed in E coli as a protein in which the 21 C-terminal amino acids are replaced with a short linker and a hexahistidine tag ([…]). The purified protein is mixed with radioactive nucleotides and allowed to replicate a heteropolymeric RNA substrate, primed by an endogenous short hairpin, resulting in an approximately 760 nt product. The radioactive product is captured on a filter and quantitated after removal of the unincorporated nucleotides.
(1) Compounds 10 μl at 10 μg/ml in 15% dimethylsulfoxide (DMSO)
When starting from 100 μg/ml compound stock in 1% DMSO, 5 μl 30% DMSO is dispensed per well. Next, 5 μl compound (100 μg/ml) is dispensed per well.
When starting from 50 μg/ml compound stock in 15% DMSO, 10 μl compound is added per well.
20 μl enzyme mix is added into each well of the assay plate. The compound and enzyme are incubated at room temperature for 15 minutes.
(3) Template mix (prepared in advance)
A tube of RNA (5 μg/tube stored in 75% ethanol and 0.3 M sodium acetate) is microcentrifuged for 20 minutes at 4° C. (one tube supplies 1-1.5 plates). Ethanol is removed from the tube by gently inverting the tube. The RNA is vacuum dried and re-suspended in 1 ml of DEPC water in a tightly capped tube. To dissolve RNA, the RNA solution is incubated on ice for ˜60 minutes and gently vortexed. It is spun briefly to ensure all RNA solution at the bottom of the tube before opening cap. The RNA solution is then gently transferred into a 5 ml or larger tube. Another 3 ml of DEPC water is added to obtain a total of 4 ml of volume.
The following volumes of reagents are added:
20 μl template mix per reaction is added (i.e. 20 ng of pOF per reaction or ˜3 nM)
(4) The reaction is incubated at room temperature (22-25° C.) for 2 hours.
(5) The reaction is quenched by adding 50 μl of 170 mM EDTA.
Final concentration of EDTA is 85 mM.
(6) The filters of Millipore multiscreen assay plate is pre-wet by adding 200 μl of 0.5 M sodium phosphate buffer, pH 7.0 into each well. This stands at room temperature for 2-3 minutes.
(7) The multiscreen filter plate is placed onto a Millipore Manifold under vacuum to allow buffer to flow through. After the vacuum is turned off, 80 μl of the reaction product is transferred into each well of the filter plate. This stands for 2-3 minutes prior to turning on the vacuum again to filter the reaction product.
(8) The vacuum is then removed. 200 μl of 0.5 M sodium phosphate buffer is added, pH 7.0, into each well. The vacuum is then turned on.
Step (8) is repeated three more times.
(9) Next the polypropylene bottom is removed, and the filter is spot dried with a paper towel. The filter plate is air-dried on a bench for 1 hour before adding 40 μl Super Mix scintillant. The top of the plate is sealed with a tape and the plate is placed into a Packard carrier or micro-beta carrier.
(10) The plate is counted using a Packard Topcount or micro-beta counter. Count (for example using Program 10) for ^33P in Top count or ^33P program in micro-beta.
The percent inhibition is calculated after background subtraction as a percent reduction of activity relative to the positive control (average value of the plate excluding the negative controls). For the primary screen hits were chosen as showing >75% inhibition.
See, Ferrari et al. 1999. J. Virology 73:1649-1654: “Characterization of soluble Hepatitis C virus RNA-dependent RNA polymerase expressed in E. coli and Takamizawa et al 1991” and J. Virology 65:1105-1113: “Structure and characterization of Hepatitis C virus genome isolated from human carriers,” both reference are hereby incorporated by reference.

T1 sequence (P26663 2420-2989): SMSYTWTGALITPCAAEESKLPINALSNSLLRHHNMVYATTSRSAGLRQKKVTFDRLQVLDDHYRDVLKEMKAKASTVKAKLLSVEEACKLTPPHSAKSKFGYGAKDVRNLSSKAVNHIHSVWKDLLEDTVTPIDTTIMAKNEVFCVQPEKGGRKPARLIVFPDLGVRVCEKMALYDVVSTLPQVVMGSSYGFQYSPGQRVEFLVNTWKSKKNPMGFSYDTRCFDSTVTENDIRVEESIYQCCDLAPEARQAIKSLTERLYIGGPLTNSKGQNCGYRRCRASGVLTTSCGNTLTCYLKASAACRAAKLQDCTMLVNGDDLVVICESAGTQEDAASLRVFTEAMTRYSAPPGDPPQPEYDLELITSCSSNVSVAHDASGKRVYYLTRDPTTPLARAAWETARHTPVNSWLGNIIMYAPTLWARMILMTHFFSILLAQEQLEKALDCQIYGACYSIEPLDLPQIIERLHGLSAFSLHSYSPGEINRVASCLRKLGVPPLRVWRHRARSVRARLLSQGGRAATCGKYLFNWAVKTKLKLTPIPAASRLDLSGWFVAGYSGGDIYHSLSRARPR

Compound	IC50
CCCC1(C(=O)O)CCc2c1[nH]c1c(C)cc(F)c(C#N)c21 (stereo not shown) [Example 22, 8-Cyano-7-fluoro-5-methyl-3-propyl-1,2,3,4-tetrahydro-cyclopenta[b]indole-3-carboxylic acid]	1800 nM
CCCC1(CC(=O)O)CCCc2c1[nH]c1c(C#N)ccc(C#N)c21 (stereo not shown) [Example 35, (5,8-Dicyano-1-propyl-2,3,4,9-tetrahydro-1H-carbazol-1-yl)-acetic acid]	3400 nM
C=CCC1(C(=O)O)CCc2c1[nH]c1c(Cl)ccc(Cl)c21 (stereo not shown) [Example 1, 3-Allyl-5,8-dichloro-1,2,3,4-tetrahydro-cyclopenta[b]indole-3-carboxylic acid]	1200 nM
CCCCC1(C(=O)O)CCc2c1[nH]c1c(F)ccc(Br)c21 (stereo not shown) [Example 5, 8-Bromo-3-butyl-5-fluoro-1,2,3,4-tetrahydro-cyclopenta[b]indole-3-carboxylic acid]	5800 nM
